According to patent US5298397A, “Method of assaying d-vanillylmandelic acid” (Yamasa Shoyu Kabushiki Kaisha, priority 1989, dated 1994):

Experiments:
anti-D-VMA antibody = experiment: Cross-reactivity of anti-D-VMA monoclonal antibodies with acidic catecholamine metabolites (competitive enzyme immunoassay); type: binding, mouse; conditions: reactivity with D-VMA defined as 100%; for Antibody Reactivity (% by weight): from concentration ratios at 50% inhibition on standard curves
Protocol: Three days after the final booster, spleen cells of the mouse were enucleated and washed with Eagle's minimum essential medium (MEM). […] The spleen cells and P3 U1 were mixed at 10:1 and the mixture was centrifuged. To the pellets obtained was gradually added 1 ml of an MEM solution containing 50% polyethylene glycol (PEG) 1000 to cause cell fusion. […] 0.1 ml of the suspension was apportioned to each well of a 96-well microplate. One day thereafter, 0.1 ml of HAT medium was added. […] Into each well of the 96-well microplate previously coated with HSA and the 96-well microplate coated with D-VMA-HSA (10 μg/ml) was added […] of the above diluted culture supernatant. […] After one hour at room temperature, by the use of the same reagent as in the case of the ELISA method as described above except for using O-phenylenediamine as the chromogenic reagent, enzyme immunoassay was practiced according to the competitive reaction method.

[1] = system: peroxidase-labeled anti-D-VMA antibody; experiment: Competitive enzyme immunoassay of D-VMA or L-VMA solutions with peroxidase-labeled anti-D-VMA antibody on solid-phase antigen plate; type: binding, mouse; conditions: conclusion drawn from Table 2
Protocol: A volume of 50 μl of the D-VMA solution or L-VMA solution as described above and 50 μl of the peroxidase-labeled anti-D-VMA antibody solution were added into each well, and reaction was carried out stationarily at room temperature for one hour.
After reaction, the solution in each well was discarded and each well was washed with a 0.9% aqueous sodium chloride solution.
After washing, 100 μl of a substrate solution (containing 1 mM H2 O2 and […] TMBZ) was added and left standing for 25 minutes. A volume of 100 μl of a reaction stopping solution (a 2N sulfuric acid solution) was added, and absorbance at 450 nm was measured by the use of a 96-well microplate reader MPR-A4 (produced by Toso K. K.).
After measurement, from the calibration curve prepared by the use of DL-VMA of a known concentration as a standard substance (FIG. 1), the VMA concentration corresponding to the above absorbance was determined.

Row | SMILES | Antibody Reactivity (% by weight) (anti-D-VMA antibody) | cross-reactivity of the antibody reagent (anti-D-VMA antibody) | reactivity of the labeled antibody [1]
1 | O=C(O)Cc1ccc(O)c(O)c1 [3,4-Dihydroxyphenylacetic acid (DOPAC), 3,4-Dihydroxyphenylacetic acid] | < 0.01 % by weight | – | –
2 | COc1cc(CC(=O)O)ccc1O [Homovanilic acid (HVA), Homovanilic acid] | < 0.01 % by weight | – | –
3 | CNCC(O)c1ccc(O)c(OC)c1 (stereo not shown) [Metanepherine] | < 0.01 % by weight | – | –
4 | COc1cc(CC(=O)C(=O)O)ccc1O [Vanillylpyruvic acid] | 4 % by weight | – | –
5 | O=C(O)C(O)c1ccc(O)c(O)c1 (stereo not shown) [3,4-Dihydroxymandelic acid (DOMA), 3,4-Dihydroxymandelic acid] | 4 % by weight | – | –

Further lines, results first:

Row | Antibody Reactivity (% by weight) (anti-D-VMA antibody) | cross-reactivity of the antibody reagent (anti-D-VMA antibody) | reactivity of the labeled antibody [1] | SMILES
6 | 50 % by weight | – | – | COc1cc(C(O)C(=O)O)ccc1O (racemic) [DL-VMA, vanillylmandelic acid]
7 | 100 % by weight | – | – | COc1cc([C@@H](O)C(=O)O)ccc1O [D-VMA, D-vanillylmandelic acid]
8 | < 1 % by weight | ≤ 1% | substantially no reactivity | COc1cc([C@H](O)C(=O)O)ccc1O [L-VMA]
